Test results published in patent US11566028B2, “Bicyclic heterocycles as FGFR inhibitors” (Incyte Corporation, priority 2019, dated 2023).
Where two headings read alike, the source gives them in different places.

Columns and labels:
Format in all cases: biochemical
FGFR1 = FGFR1 (Homo sapiens (Human), UniProt P11362); experiment: FGFR Enzymatic Assay (FRET peptide phosphorylation), FGFR1; details: pre-incubated for 4 hours
FGFR2 = FGFR2 (Homo sapiens (Human), UniProt P21802); experiment: FGFR Enzymatic Assay (FRET peptide phosphorylation), FGFR2
[1] = target: wild-type un-phosphorylated FGFR3 protein (Homo sapiens (Human), UniProt P22607); experiment: FGFR Enzymatic Assay (FRET peptide phosphorylation), FGFR3; details: pre-incubated for 4 hours
Sequence of wild-type un-phosphorylated FGFR3 protein (P22607 23-806): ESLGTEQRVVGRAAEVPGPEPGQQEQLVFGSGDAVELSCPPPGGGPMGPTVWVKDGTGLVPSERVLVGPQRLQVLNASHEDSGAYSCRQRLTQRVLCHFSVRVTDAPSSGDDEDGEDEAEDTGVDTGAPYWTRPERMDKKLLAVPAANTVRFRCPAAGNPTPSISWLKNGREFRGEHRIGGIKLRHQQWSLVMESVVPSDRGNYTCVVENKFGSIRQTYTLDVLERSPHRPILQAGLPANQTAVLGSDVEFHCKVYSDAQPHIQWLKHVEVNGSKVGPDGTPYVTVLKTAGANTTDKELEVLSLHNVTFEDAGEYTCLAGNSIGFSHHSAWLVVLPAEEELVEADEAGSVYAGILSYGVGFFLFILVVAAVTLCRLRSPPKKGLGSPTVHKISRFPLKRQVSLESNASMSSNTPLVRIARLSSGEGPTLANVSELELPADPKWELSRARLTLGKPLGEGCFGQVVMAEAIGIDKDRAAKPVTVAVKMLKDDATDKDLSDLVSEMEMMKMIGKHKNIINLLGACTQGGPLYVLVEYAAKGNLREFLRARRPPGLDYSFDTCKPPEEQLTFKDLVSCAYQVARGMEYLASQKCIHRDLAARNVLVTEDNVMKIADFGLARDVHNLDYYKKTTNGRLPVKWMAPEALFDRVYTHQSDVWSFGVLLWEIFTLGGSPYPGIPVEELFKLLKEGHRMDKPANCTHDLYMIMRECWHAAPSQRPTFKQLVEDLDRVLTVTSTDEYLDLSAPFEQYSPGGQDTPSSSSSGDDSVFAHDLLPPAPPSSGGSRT

Sequence of FGFR1 (P11362 22-822): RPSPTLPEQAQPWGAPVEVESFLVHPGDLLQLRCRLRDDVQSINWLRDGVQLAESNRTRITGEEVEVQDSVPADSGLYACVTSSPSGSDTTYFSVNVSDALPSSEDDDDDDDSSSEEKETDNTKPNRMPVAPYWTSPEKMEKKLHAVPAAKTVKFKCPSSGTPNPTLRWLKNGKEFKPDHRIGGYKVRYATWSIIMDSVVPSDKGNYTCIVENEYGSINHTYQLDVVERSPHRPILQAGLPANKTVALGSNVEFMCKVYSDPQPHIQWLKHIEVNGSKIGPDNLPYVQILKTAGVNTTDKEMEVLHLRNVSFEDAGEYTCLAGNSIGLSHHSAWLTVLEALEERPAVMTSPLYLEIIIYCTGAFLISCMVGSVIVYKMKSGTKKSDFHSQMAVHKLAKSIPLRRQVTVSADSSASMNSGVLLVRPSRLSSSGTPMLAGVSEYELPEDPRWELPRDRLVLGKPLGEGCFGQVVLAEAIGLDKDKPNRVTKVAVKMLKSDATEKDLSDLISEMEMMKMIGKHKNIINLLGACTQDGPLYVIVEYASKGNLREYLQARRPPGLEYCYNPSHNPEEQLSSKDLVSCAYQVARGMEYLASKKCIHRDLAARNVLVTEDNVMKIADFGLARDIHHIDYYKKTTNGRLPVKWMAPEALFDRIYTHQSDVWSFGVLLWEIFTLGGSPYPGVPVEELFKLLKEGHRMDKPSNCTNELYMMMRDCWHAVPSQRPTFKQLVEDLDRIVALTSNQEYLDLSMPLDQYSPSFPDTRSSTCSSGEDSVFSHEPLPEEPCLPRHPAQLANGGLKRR
Sequence of FGFR2 (P21802 22-821): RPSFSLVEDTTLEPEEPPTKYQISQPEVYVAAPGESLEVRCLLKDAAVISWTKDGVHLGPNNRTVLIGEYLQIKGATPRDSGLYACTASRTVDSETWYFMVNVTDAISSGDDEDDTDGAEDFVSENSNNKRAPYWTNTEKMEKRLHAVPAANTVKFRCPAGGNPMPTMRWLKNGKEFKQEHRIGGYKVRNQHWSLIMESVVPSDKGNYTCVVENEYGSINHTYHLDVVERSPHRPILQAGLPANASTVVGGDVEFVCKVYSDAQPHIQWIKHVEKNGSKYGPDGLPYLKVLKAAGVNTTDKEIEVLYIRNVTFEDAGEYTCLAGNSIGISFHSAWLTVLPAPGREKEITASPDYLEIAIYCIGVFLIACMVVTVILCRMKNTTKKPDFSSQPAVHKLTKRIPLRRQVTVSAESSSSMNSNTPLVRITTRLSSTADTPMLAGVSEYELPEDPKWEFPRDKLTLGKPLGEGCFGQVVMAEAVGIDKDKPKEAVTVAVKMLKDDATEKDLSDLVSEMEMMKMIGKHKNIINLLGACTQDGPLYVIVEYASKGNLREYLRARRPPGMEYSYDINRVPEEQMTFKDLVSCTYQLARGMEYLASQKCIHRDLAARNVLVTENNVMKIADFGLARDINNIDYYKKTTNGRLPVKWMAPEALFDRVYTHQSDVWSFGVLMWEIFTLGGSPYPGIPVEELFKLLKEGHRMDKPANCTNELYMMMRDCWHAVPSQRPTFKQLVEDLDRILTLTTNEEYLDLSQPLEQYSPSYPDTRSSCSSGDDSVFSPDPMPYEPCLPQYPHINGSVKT

Row | Compound | IC50 (FGFR1) [nM] | IC50 (FGFR2; pre-incubated for 4 hours) [nM] | IC50 [1] [nM] | IC50 (FGFR2) [nM]
1 | CNC(=O)c1cncc(-c2cnn3cc(-c4ccc(N5CCN(C)CC5)nc4)c(O[C@H]4CCOC4)nc23)c1 [Example 19, (S)-N-Methyl-5-(6-(6-(4-methylpiperazin-1-yl)pyridin-3-yl)-5-((tetrahydrofuran-3-yl)oxy)pyrazolo[1,5-a]pyrimidin-3-yl)nicotinamide] | 30 to 200 | < 10 | < 10 | –
2 | CNC(=O)c1cncc(-c2cnn3cc(-c4ccc(N5CCOCC5)nc4)c(O[C@H]4CCOC4)nc23)c1 [Example 20, (S)-N-Methyl-5-(6-(6-morpholinopyridin-3-yl)-5-((tetrahydrofuran-3-yl)oxy)pyrazolo[1,5-a]pyrimidin-3-yl)nicotinamide] | 30 to 200 | < 10 | < 10 | –
3 | CNC(=O)c1cncc(-c2cnn3cc(-c4cnn(C5CC5)c4)c(O[C@H]4CCOC4)nc23)c1 [Example 21, (S)-5-(6-(1-Cyclopropyl-1H-pyrazol-4-yl)-5-((tetrahydrofuran-3-yl)oxy)pyrazolo[1,5-a]pyrimidin-3-yl)-N-methylnicotinamide] | 30 to 200 | < 10 | < 10 | –
4 | CNC(=O)c1cncc(-c2cnn3cc(-c4cnn(C5CCC5)c4)c(O[C@H]4CCOC4)nc23)c1 [Example 22, (S)-5-(6-(1-Cyclobutyl-1H-pyrazol-4-yl)-5-((tetrahydrofuran-3-yl)oxy)pyrazolo[1,5-a]pyrimidin-3-yl)-N-methylnicotinamide] | 10 to 30 | < 10 | < 10 | –
5 | CNC(=O)c1cc(-c2cnn3cc(-c4cccnc4)c(O[C@H]4CCOC4)nc23)c(F)c(C(F)F)c1 [Example 23, (S)-3-(Difluoromethyl)-4-fluoro-N-methyl-5-(6-(pyridin-3-yl)-5-((tetrahydrofuran-3-yl)oxy)pyrazolo[1,5-a]pyrimidin-3-yl)benzamide] | 30 to 200 | < 10 | < 10 | –
6 | CNC(=O)c1cc(-c2cnn3cc(-c4ccc(C(C)(C)O)nc4)c(O[C@H]4CCOC4)nc23)c(F)c(C(F)F)c1 [Example 25, (S)-3-(Difluoromethyl)-4-fluoro-5-(6-(6-(2-hydroxypropan-2-yl)pyridin-3-yl)-5-((tetrahydrofuran-3-yl)oxy)pyrazolo[1,5-a]pyrimidin-3-yl)-N-methylbenzamide] | 30 to 200 | < 10 | < 10 | –
7 | CNC(=O)c1cc(-c2cnn3cc(-c4cnn(C5CN(C)C5)c4)c(O[C@H]4CCOC4)nc23)c(F)c(C(F)F)c1 [Example 26, (S)-3-(Difluoromethyl)-4-fluoro-N-methyl-5-(6-(1-(1-methylazetidin-3-yl)-1H-pyrazol-4-yl)-5-((tetrahydrofuran-3-yl)oxy)pyrazolo[1,5-a]pyrimidin-3-yl)benzamide] | < 10 | < 10 | < 10 | –
8 | CNC(=O)c1cc(C#N)cc(-c2cnn3cc(-c4ccc(C)nc4)c(O[C@H]4CCOC4)nc23)c1 [Example 28, (S)-3-Cyano-N-methyl-5-(6-(6-methylpyridin-3-yl)-5-((tetrahydrofuran-3-yl)oxy)pyrazolo[1,5-a]pyrimidin-3-yl)benzamide] | ≥ 200 | 10 to 30 | < 10 | –
9 | CNC(=O)c1cc(C#N)cc(-c2cnn3cc(-c4ccncc4)c(O[C@H]4CCOC4)nc23)c1 [Example 30, (S)-3-Cyano-N-methyl-5-(6-(pyridin-4-yl)-5-((tetrahydrofuran-3-yl)oxy)pyrazolo[1,5-a]pyrimidin-3-yl)benzamide] | 30 to 200 | 10 to 30 | < 10 | –
10 | CNC(=O)c1cc(O)c(F)c(-c2cnn3cc(-c4cnn(C)c4)c(O[C@H]4CCOC4)nc23)c1 [Example 31, (S)-4-Fluoro-3-hydroxy-N-methyl-5-(6-(1-methyl-1H-pyrazol-4-yl)-5-((tetrahydrofuran-3-yl)oxy)pyrazolo[1,5-a]pyrimidin-3-yl)benzamide] | 10 to 30 | < 10 | < 10 | –
11 | CNC(=O)c1cc(-c2cnn3cc(-c4cnn(C5CCC5)c4)c(O[C@H]4CCOC4)nc23)cc(S(C)(=O)=O)c1 [Example 32, (S)-3-(6-(1-Cyclobutyl-1H-pyrazol-4-yl)-5-((tetrahydrofuran-3-yl)oxy)pyrazolo[1,5-a]pyrimidin-3-yl)-N-methyl-5-(methylsulfonyl)benzamide] | ≥ 200 | 30 to 200 | ≥ 200 | –
12 | CNC(=O)c1cc(C)c(F)c(-c2cnn3cc(-c4cnn(CCO)c4)c(N[C@H]4CCOC4)nc23)c1 [Example 36, (S)-4-Fluoro-3-(6-(1-(2-hydroxyethyl)-1H-pyrazol-4-yl)-5-((tetrahydrofuran-3-yl)amino)pyrazolo[1,5-a]pyrimidin-3-yl)-N,5-dimethylbenzamide] | 30 to 200 | < 10 | < 10 | –
13 | CNC(=O)c1cc(C)c(F)c(-c2cnn3cc(-c4cnn(CCC#N)c4)c(N[C@H]4CCOC4)nc23)c1 [Example 37, (S)-3-(6-(1-(2-Cyanoethyl)-1H-pyrazol-4-y1)-5-((tetrahydrofuran-3-yl)amino)pyrazolo[1,5-a]pyrimidin-3-y1)-4-fluoro-N,5-dimethylbenzamide] | 10 to 30 | – | < 10 | < 10
14 | CNC(=O)c1cc(C)c(F)c(-c2cnn3cc(-c4cnn(C5CCS(=O)(=O)C5)c4)c(N[C@H]4CCOC4)nc23)c1 (stereo partly drawn) [Example 38, 3-(6-(1-(1,1-Dioxidotetrahydrothiophen-3-y1)-1H-pyrazol-4-y1)-5-(((S)-tetrahydrofuran-3-yl)amino)pyrazolo[1,5-a]pyrimidin-3-y1)-4-fluoro-N,5-dimethylbenzamide] | 30 to 200 | – | < 10 | < 10
15 | CNC(=O)c1cc(C)c(F)c(-c2cnn3cc(-c4cnn(CC(=O)N(C)C)c4)c(N[C@H]4CCOC4)nc23)c1 [Example 39, (S)-3-(6-(1-(2-(Dimethylamino)-2-oxoethyl)-1H-pyrazol-4-y1)-5-((tetrahydrofuran-3-yl)amino)pyrazolo[1,5-a]pyrimidin-3-y1)-4-fluoro-N,5-dimethylbenzamide] | 10 to 30 | – | < 10 | < 10
16 | CNC(=O)c1cc(-c2cnn3cc(-c4cnn(C)c4)c(N[C@H]4CCOC4)nc23)c(F)c(C(F)F)c1 [Example 47, (S)-3-(Difluoromethyl)-4-fluoro-N-methyl-5-(6-(1-methyl-1H-pyrazol-4-yl)-5-((tetrahydrofuran-3-yl)amino)pyrazolo[1,5-a]pyrimidin-3-yl)benzamide] | 10 to 30 | < 10 | < 10 | –
17 | CCn1cc(-c2cn3ncc(-c4cc(C(=O)NC)cc(C(F)F)c4F)c3nc2N[C@H]2CCOC2)cn1 [Example 48, (S)-3-(Difluoromethyl)-5-(6-(1-ethyl-1H-pyrazol-4-yl)-5-((tetrahydrofuran-3-yl)amino)pyrazolo[1,5-a]pyrimidin-3-yl)-4-fluoro-N-methylbenzamide] | 10 to 30 | < 10 | < 10 | –
18 | CNC(=O)c1cc(-c2cnn3cc(-c4cnn(C5CCOC5)c4)c(N[C@H]4CCOC4)nc23)c(F)c(C(F)F)c1 (stereo partly drawn) [Example 49, 3-(Difluoromethyl)-4-fluoro-N-methyl-5-(6-(1-(tetrahydrofuran-3-yl)-1H-pyrazol-4-yl)-5-(((S)-tetrahydrofuran-3-yl)amino)pyrazolo[1,5-a]pyrimidin-3-y1)benzamide] | 10 to 30 | – | < 10 | < 10
19 | CNC(=O)c1cc(-c2cnn3cc(-c4cnn(CCOC)c4)c(N[C@H]4CCOC4)nc23)c(F)c(C(F)F)c1 [Example 50, (S)-3-(Difluoromethyl)-4-fluoro-5-(6-(1-(2-methoxyethyl)-1H-pyrazol-4-yl)-5-((tetrahydrofuran-3-yl)amino)pyrazolo[1,5-a]pyrimidin-3-yl)-N-methylbenzamide] | 10 to 30 | < 10 | < 10 | –
20 | CNC(=O)c1cc(F)c(F)c(-c2cnn3cc(-c4cnn(Cc5cccnc5)c4)c(N[C@H]4CCOC4)nc23)c1 [Example 52, (S)-3,4-Difluoro-N-methyl-5-(6-(1-(pyridin-3-ylmethyl)-1H-pyrazol-4-yl)-5-((tetrahydrofuran-3-yl)amino)pyrazolo[1,5-a]pyrimidin-3-yl)benzamide] | < 10 | < 10 | < 10 | –
21 | CNC(=O)c1cc(F)c(F)c(-c2cnn3cc(-c4cnn(CC5CCOCC5)c4)c(N[C@H]4CCOC4)nc23)c1 [Example 54, (S)-3,4-Difluoro-N-methyl-5-(6-(1-((tetrahydro-2H-pyran-4-yl)methyl)-1H-pyrazol-4-y1)-5-((tetrahydrofuran-3-yl)amino)pyrazolo[1,5-a]pyrimidin-3-yl)benzamide] | < 10 | – | < 10 | < 10
22 | CNC(=O)c1cc(F)c(F)c(-c2cnn3cc(-c4ccn(C(C)C)c(=O)c4)c(N[C@H]4CCOC4)nc23)c1 [Example 56, (S)-3,4-Difluoro-5-(6-(1-isopropyl-2-oxo-1,2-dihydropyridin-4-y1)-5-((tetrahydrofuran-3-yl)amino)pyrazolo[1,5-a]pyrimidin-3-y1)-N-methylbenzamide] | 10 to 30 | – | < 10 | < 10
23 | CNC(=O)c1cc(F)c(F)c(-c2cnn3cc(-c4ccc(C(C)(C)O)nc4)c(N[C@H]4CCOC4)nc23)c1 [Example 57, (S)-3,4-Difluoro-5-(6-(6-(2-hydroxypropan-2-yl)pyridin-3-y1)-5-((tetrahydrofuran-3-yl)amino)pyrazolo[1,5-a]pyrimidin-3-y1)-N-methylbenzamide] | 30 to 200 | – | < 10 | < 10
24 | [2H]C([2H])([2H])NC(=O)c1cc(C)c(F)c(-c2cnn3cc(-c4cnn(C5CCN(C(C)C)CC5)n4)c(N[C@H]4CCOC4)nc23)c1 [Example 67, (S)-4-Fluoro-3-(6-(2-(1-isopropylpiperidin-4-yl)-2H-1,2,3-triazol-4-yl)-5-((tetrahydrofuran-3-yl)amino)pyrazolo[1,5-a]pyrimidin-3-yl)-5-methyl-N-(methyl-d3)benzamide] | < 10 | < 10 | < 10 | –
